Where no end group is shown, it is not given here.
Key:
amylin receptors = conditions: mutated human amylin, cell-based system; cited from earlier work
Text: Receptor–ligand interaction studies with alanine-scanning mutagenesis have been reported for amylin receptors. Lee et al. first introduced alanine-scanning mutagenesis to calcitonin and AC413 peptides and examined the role of each amino acid in the interaction with amylin receptor 1 ECD [20]. They reported critical amino acids of peptide ligands for amylin receptor 1 ECD binding. Their results were supported by the following structural studies with the calcitonin receptor ECD and salmon calcitonin fragments. Recently, Lee S introduced alanine-scanning mutagenesis to a rat amylin ...

[1] = system: amylin receptor 1 with D101A; conditions: cAMP production, amylin receptor 1 activation; cited from earlier work
Method: (§1) Gingell et al. addressed the receptor interaction with human calcitonin and rat amylin by introducing mutations to the peptide-binding pocket of the calcitonin receptor and amylin receptor 1 ECDs. The peptide potency for calcitonin receptor and amylin receptor 1 activation was investigated by measuring cAMP production. Multiple residues located in the peptide-binding pocket were tested for peptide-mediated receptor activation. They reported the mutational effects of D101A and N124A that were used in the current study. Consistent with our binding results, the D101A mutation markedly decr ...

[2] = system: calcitonin receptor D101A; conditions: cAMP production, calcitonin receptor activation, cited from earlier work
Method: as §1

[3] = system: calcitonin receptor and amylin receptor 1 with N124A; conditions: cAMP production, in words; cited from earlier work
Text: The N124 residue of the calcitonin receptor appeared dispensable for amylin receptor 1 activation mediated by calcitonin or amylin. The affinity decreases for receptor ECD by 8-fold and more may be insufficient to produce the potency decrease in the activation of the full-length calcitonin and amylin rec ...

[4] = cited from earlier work
Text: (§2) Due to the inherent nature of the calcitonin receptor as the main component of the functional amylin receptor, a calcitonin peptide is used as an agonist for amylin receptors. […] Accordingly, salmon calcitonin is well-characterized as a dual agonist for calcitonin and amylin receptors and is commonly used for research targeting amylin receptors.

[5] = system: human calcitonin and amylin receptors; conditions: in words; cited from earlier work
Text: as §2

[6] = molecular target: T1, wild-type amylin receptor 1 ECD (Homo sapiens, UniProt O60894+P30988); experiment: Competition binding assay with non-labeled sCT(22–32), WT; conditions: competition with 10 nM FITC-sCT(22–32), receptor ECD 81 nM, 1 hour, anisotropy
T1 construct: pHLsec/hRAMP1.24–111-(GSA)3-hCTR.34–141-H6 (H-pSL005); H6 (hexahistidine) (C); made in house; host or cells: HEK293 (transient transfection, secreted, N-glycosylated)
Method: (§3) The overall procedure of the FP binding assay with a saturation binding format was previously described. A total of 10 nM FITC-labeled sCT(22–32) and 10 nM FITC-labeled AC413(6–25) with Y25P mutation were used for the receptor–ligand binding assay. For the saturation binding format, the non-linear regression curves were generated by using user-defined equations that were previously described for affinity calculation. FITC-labeled peptide probes were incubated for 1 h at room temperature with the purified receptor protein prior to fluorescence signal measurement. A BioTek Synergy H1 microplate reader (Agilent, Santa Clara, CA, USA) was used to evaluate fluorescence polarization/anisotropy. […] When total fluorescence intensity of the FITC-labeled probes was altered with receptor binding by more than 10% from the starting fluorescence value, the anisotropy was adjusted to reflect the fluorescence change as previously described. […] PRISM 5.0 was fully functional, with the user-defined equations used predicting KD values from fluorescence polarization/anisotropy. […]
(§4) The mixture of the competitive peptide with varying concentrations, 10 nM FITC -sCT(22 –32), and the receptor ECD protein with the concentration described earlier was incubated for 1 hour. The anisotropy signal was measured by using a BioTek Synergy H1 microplate reader (Agilent, Santa Clara, CA, USA). […]

[7] = molecular target: T2, amylin receptor 1 ECD with the E123A mutation (Homo sapiens, UniProt O60894+P30988, E123A); experiment: Competition binding assay with non-labeled sCT(22–32), E123A; conditions: competition with 10 nM FITC-sCT(22–32), receptor ECD E123A 365 nM, 1 hour, anisotropy
T2 construct: pHLsec/hRAMP1.24–111-(GSA)3-hCTR.34–141.E123A-H6 (D-pJJ004); H6 (hexahistidine) (C); made in house; host or cells: HEK293 (transient transfection, secreted, N-glycosylated)
Method: as §3, §4

[8] = molecular target: T3, amylin receptor 1 ECD with the E123D mutation (Homo sapiens, UniProt O60894+P30988, E123D); experiment: Competition binding assay with non-labeled sCT(22–32), E123D; conditions: competition with 10 nM FITC-sCT(22–32), receptor ECD E123D 53 nM, 1 hour, anisotropy
T3 construct: pHLsec/hRAMP1.24–111-(GSA)3-hCTR.34–141.E123D-H6 (D-pJJ001); H6 (hexahistidine) (C); made in house; host or cells: HEK293 (transient transfection, secreted, N-glycosylated)
Method: as §3, §4

[9] = system: calcitonin receptor N135A, cAMP production; conditions: cited from earlier work
Method: (§5) Several receptor–ligand interaction studies introducing mutagenesis to calcitonin and amylin receptors are also available. Among these previous reports, an extensive receptor–ligand interaction study was reported where alanine-scanning mutagenesis was applied to the upper segment of transmembrane helix 1 (TM1) of the calcitonin receptor and its extension into the receptor ECD [31]. Although the study focused on TM1, some residues of calcitonin receptor ECD were mutated and were tested for peptide ligand interaction. When the N135 residue was mutated to alanine, the ...

[10] = system: calcitonin receptor N135A, phosphorylation of extracellular signal-regulated kinase (ERK); conditions: cited from earlier work
Method: as §5

pancreatic β-cells = conditions: in words; cited from earlier work
Text: as §2

[11] = system: calcitonin receptor N135A; conditions: cited from earlier work
Method: as §5

T1 sequence (O60894 24-111): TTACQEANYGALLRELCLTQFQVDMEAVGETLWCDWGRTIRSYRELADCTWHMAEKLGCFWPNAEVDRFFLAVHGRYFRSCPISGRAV
T1 sequence (P30988 34-141): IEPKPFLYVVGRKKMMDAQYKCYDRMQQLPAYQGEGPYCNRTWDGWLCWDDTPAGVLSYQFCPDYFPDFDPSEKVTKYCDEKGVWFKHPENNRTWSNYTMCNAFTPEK
T2 sequence (O60894 24-111): as the sequence (O60894 24-111) above
T2 sequence (P30988 34-141 E123A): as the sequence (P30988 34-141) above, with E90A counted along it
T3 sequence (O60894 24-111): as the sequence (O60894 24-111) above
T3 sequence (P30988 34-141 E123D): as the sequence (P30988 34-141) above, with E90D counted along it

Substance: V17A: human amylin with mutation V17A (KCNTATCATQRLANFLAHSSNNFGAILSSTNVGSNTY; ends and bridges not checked; cysteine pairing not given here; UniProt P10997 34-70, looked up, variant V17A)
- amylin receptor activation potency (amylin receptors): significantly increased the amylin receptor activation potency

Substance: rat amylin: rodent (rat/mouse) amylin
- decrease of potency [1]: 68 fold
- effect of D101A on potency ([2]; in words): not significantly altered
- effect of N124A on potency [3]: did not significantly change the potency
- aggregation propensity ([4]; rodent (rat/mouse) amylin versus human amylin): less propensity for forming aggregates than human amylin

Substance: salmon calcitonin
- binding and receptor activation potency [5]: strong receptor activation potency

Substance: YPRTNTGSGTP-NH2 [non-labeled sCT(22–32)]
- Ki [6]: 0.891 µM
- Ki [7]: 2.51 µM
- Ki [8]: 1.23 µM

Substance: calcitonin
- decrease of functional affinity (pKA) [9]: less than 10 fold
- decrease of functional affinity (pKA) [10]: less than 10 fold

Substance: human amylin: peptide hormone secreted from pancreatic β-cells, 37 amino acids (KCNTATCATQRLANFLVHSSNNFGAILSSTNVGSNTY; not fully specified (C-terminus, bridges); cysteine pairing not given here; UniProt P10997 34-70, looked up)
- aggregation ([4]; human amylin): reported to form aggregates
- effect of aggregates on pancreatic β-cells (pancreatic β-cells): harm pancreatic β-cells

Substance: human calcitonin: peptide hormone
- effect of N135A on binding [11]: abolished the binding
- decrease of potency ([2]; D101A): 17 fold
- effect of N124A on potency [3]: did not significantly change the potency

Substance: porcine calcitonin: peptide hormone (CSNLSTCVLSAYWRNLNNFHRFSGMGFGPETP; ends and bridges not checked; cysteine pairing not given here; UniProt P01259 1-32, looked up)
- effect of N135A on binding [11]: abolished the binding

Substance: A5S: human amylin with mutation A5S (KCNTSTCATQRLANFLVHSSNNFGAILSSTNVGSNTY; ends and bridges not checked; cysteine pairing not given here; UniProt P10997 34-70, looked up, variant A5S)
- amylin receptor activation potency (amylin receptors): significantly increased the amylin receptor activation potency

Substance: Q10A: human amylin with mutation Q10A (KCNTATCATARLANFLVHSSNNFGAILSSTNVGSNTY; ends and bridges not checked; cysteine pairing not given here; UniProt P10997 34-70, looked up, variant Q10A)
- amylin receptor activation potency (amylin receptors): significantly increased the amylin receptor activation potency

Reference: article PMC12292835, “Amylin Receptor 1 Mutagenesis Revealed a Potential Role of Calcitonin Serine 29 in Receptor Interaction” (Biomedicines, 2025)
